Key:
[1] = biological target: T1, bovine β-lactoglobulin (Bos taurus, UniProt P02754); assay: Partitioning of bovine β-lactoglobulin with binding partners in aqueous two-phase systems; settings: for Partition coefficient K-value, Dex-Ficoll system: 8.88 wt.% Dextran-64, 12.86 wt.% Ficoll-400, 0.01 M sodium phosphate buffer pH 8.6; for Partition coefficient K-value, Dex-Ficoll system / Partition coefficient K-value, Dex-Ficoll-NaSCN system / Partition coefficient K-value, Dex-PEG system: protein:binding partner 1:1; for Partition coefficient K-value, Dex-Ficoll-NaSCN system: 10.98 wt.% Dextran-64, 15.95 wt.% Ficoll-400, […] NaSCN, 0.01 M sodium phosphate buffer pH 8.6; for Partition coefficient K-value, Dex-PEG system: 12.33 wt.% Dextran-64, 6.05 wt.% PEG-6000, 0.15M NaCl, 0.01 M sodium phosphate buffer pH 7.4; for Partition coefficient K-value, PEG/Phosphate system: 13.75 wt.% PEG-600, 21.00 wt.% sodium/potassium phosphate buffer pH 6.8, protein:binding partner molecular ratio 1:1; for effect of binding on the protein K-value: all the systems used
T1 sequence (P02754 17-178): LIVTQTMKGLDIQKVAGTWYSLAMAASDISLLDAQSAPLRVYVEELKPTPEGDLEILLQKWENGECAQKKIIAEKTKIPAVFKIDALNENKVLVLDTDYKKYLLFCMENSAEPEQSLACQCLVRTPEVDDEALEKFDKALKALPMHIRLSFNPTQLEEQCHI
Procedure: β-Lactoglobulin from bovine milk, retinol, nitrophenyl phosphate and bromoethanol were purchased from Sigma Chemical Company (St. Louis, Mo., USA) and used without further purification. A stock solution of β-lactoglobulin in water was prepared at a concentration of 10.0 mg/ml. Nitrophenyl phosphate, retinol, and bromoethanol were dissolved in the protein stock solutions in the molecular ratios as indicated in Table 1. These protein/binding partner solutions were subjected to partitioning in a series of different aqueous two-phase systems, also as indicated below.
The aqueous two-phase system contained 13.75 wt. % PEG-600 (molecular weight of about 600) and 21.00 wt. % sodium/potassium phosphate buffer (pH 6.8). Each system was prepared by mixing the appropriate amounts of stock polymer and buffer solutions dispensed by liquid handling workstation Hamilton ML-2200 into a 1.2 mL microtube. A total volume of 800 μL was dispensed to the microtube. A varied amount (40, 80, 120, 160, and 200 μL) of the β-lactoglobulin solution or that of a mixture of a given ratio and the corresponding amount (160, 120, 80, 40, and 0.0 μl) of water were added to a system. The ratio between the volumes of the two phases of each system of a final volume of 1.00 mL was as 1:1. The system was shaken vigorously and then centrifuged for 30 min. at about 4000 rpm to speed resolution of the two phases. Tubes were then taken from the centrifuge, aliquots of a given volume (100 μl for direct spectrophotometric analysis and 150 μl for fluorescence analysis) from the top and the bottom phases were withdrawn in duplicate. Each aliquot was diluted, mixed with appropriate reagents, and used for analyzed as described below.
The other aqueous two-phase system contained 8.88 wt. % Dextran-64 (molecular weight of about 64,000), 12.86 wt. % Ficoll-400 (molecular weight of about 400,000) and 0.01 M sodium phosphate buffer (pH 8.6). Each system was prepared by mixing the appropriate amounts of stock polymer and buffer solutions dispensed by liquid handling workstation Hamilton ML-2200 into a microtube of a total volume of 1.2 mL up to a total volume of a system of 820 μL. A varied amount (40, 80, 120, and 160 μl) of the β-lactoglobulin solution or that of a mixture of a given ratio and the corresponding amount (140, 100, 60, and 20 μl) of water were added to each system. The ratio between the volumes of the two phases of each system of a final volume of 1.00 mL was as 1:1. The system was shaken vigorously and centrifuged for 30 min. at about 4000 rpm to speed the resolution of the phases. Tubes were taken out of the centrifuge, and aliquots of a given volume (100 μl for direct spectrophotometric analysis and 150 μl for fluorescence analysis) from the top and the bottom phases were withdrawn in duplicate and each diluted and mixed with appropriate reagents as indicated below and used for further analysis performed as described below.
The other aqueous two-phase system contained 10.98 wt. % Dextran-64 (molecular weight of about 64,000), 15.95 wt. % Ficoll-400 (molecular weight of about 400,000), 0.24M NaSCN, and 0.01 M sodium phosphate buffer (pH 8.6). Each system was prepared by mixing the appropriate amounts of stock polymer, salt, and buffer solutions dispensed by liquid handling workstation Hamilton ML-2200 into a microtube of a total volume of 1.2 mL up to a total volume of a system of 920 μL. A varied amount (20, 40, 60, and 80 μl) of the β-lactoglobulin solution or that of a mixture of a given ratio and the corresponding amount (60, 40, 20, and 0 μl) of water were added to a system. The ratio between the volumes of the two phases of each system of a final volume of 1.00 mL was as 1:1. The system was vigorously shaken and centrifuged for 30 min. at about 4000 rpm in a centrifuge with a bucket rotor to speed the phase settling.

[2] = biological target: T2, hen egg white lysozyme (Gallus gallus, UniProt P00698); assay: Partitioning of hen egg white lysozyme and its mixtures with binding partners in aqueous two-phase systems; assay type: physicochemical; settings: for Partition coefficient K-value, Dex-PEG system: pH 7.4; for Partition coefficient K-value, Dex-Ficoll system / Partition coefficient K-value, Dex-Ficoll-Na2SO4 system: pH 8.6
T2 construct: Lysozyme from hen egg white; purchased Sigma Chemical Company (St. Louis, Mo., USA); host or cells: isolated from hen egg white
T2 sequence (P00698 19-147): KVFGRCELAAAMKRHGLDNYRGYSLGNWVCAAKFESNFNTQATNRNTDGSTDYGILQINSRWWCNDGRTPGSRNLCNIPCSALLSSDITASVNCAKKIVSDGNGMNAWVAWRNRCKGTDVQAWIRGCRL
Procedure: Glucose and N-acetyl-D-glucosamine were purchased from USB Corporation (Cleveland, Ohio, USA) and used without further purification. Stock solutions of lysozyme in water were prepared at a concentration of 5.0 mg/ml. N,N′-Diacetylchitobiose and N,N′,N″-triacetylchitotriose were dissolved at a concentration of 10 mg/ml and mixed with the protein solution in ratios appropriate to provide protein:ligand molecular ratios of 1:1. Stock solutions of lysozyme and of the lysozyme mixtures with ligands were added to an aqueous two-phase system as described below.

[3] = Partitioning of human, bovine and porcine insulin in aqueous two-phase systems; assay type: physicochemical; settings: pH 7.4
Procedure: Human recombinant insulin was purchased from ICN Biomedicals Inc. (Aurora, Ohio, USA), bovine and porcine insulins were purchased from Calbiochem Corporation (San Diego, Calif., USA) and used without further purification. […] Stock solutions of all insulins in 0.009M HCl were prepared and titrated with 0.01M NaOH to pH 6.0 with the final protein concentration of ca. 1.0 mg/ml. Stock solution of human insulin, stock solution of porcine insulin, and stock solution of bovine insulin were added to an aqueous two-phase system as described below.

Partition coefficient K-value, PEG-3350-Phosphate system [2] | Partition coefficient K-value, Dex-PEG system [2] | Partition coefficient K-value, Dex-Ficoll system [2] | Partition coefficient K-value, Dex-Ficoll-Na2SO4 system [2] | Compound | Partition coefficient K-value, Dex-Ficoll system [1] | Partition coefficient K-value, Dex-Ficoll-NaSCN system [1] | Partition coefficient K-value, Dex-PEG system [1] | Partition coefficient K-value, PEG/Phosphate system [1] | other results
 |  |  |  | OCCBr | 0.848 ± 0.009 | 0.486 ± 0.005 | 0.183 ± 0.001 | 1.904 ± 0.013 | effect of binding on the protein K-value [1]: decreases
 |  |  |  | O=[N+]([O-])c1ccc(OP(=O)(O)O)cc1 | 0.823 ± 0.018 | 0.420 ± 0.001 | 0.103 ± 0.001 | 1.714 ± 0.012 | effect of binding on the protein K-value [1]: decreases
0.461 ± 0.006 | 2.033 ± 0.052 | 0.803 ± 0.004 | 1.106 ± 0.007 | CC(=O)N[C@H]1[C@H](O[C@H]2[C@H](O)[C@@H](NC(C)=O)C(O)O[C@@H]2CO)O[C@H](CO)[C@@H](O[C@@H]2O[C@H](CO)[C@@H](O)[C@H](O)[C@H]2NC(C)=O)[C@@H]1O (stereo partly drawn) [N,N′,N″-Triacetylchitotriose] |  |  |  |  | 
1.311 ± 0.013 | 2.563 ± 0.032 | 0.826 ± 0.001 | 1.177 ± 0.009 | CC(=O)N[C@H]1[C@H](O[C@H]2[C@H](O)[C@@H](NC(C)=O)C(O)O[C@@H]2CO)O[C@H](CO)[C@@H](O)[C@@H]1O (stereo partly drawn) [N,N′-Diacetylchitobiose] |  |  |  |  | 
2.402 ± 0.002 | 2.860 ± 0.035 | 0.818 ± 0.003 | 1.214 ± 0.010 | CC(=O)N[C@H]1C(O)O[C@H](CO)[C@@H](O)[C@@H]1O (stereo partly drawn) [N-Acetyl-D-glucosamine] |  |  |  |  | 
 |  |  |  | Porcine Insulin: porcine insulin (Calbiochem); differs from human insulin by Ala in position B30 |  |  |  |  | Partition coefficient K-value, Dex-Ficoll-NaCl—NaPB [3]: 1.350 ± 0.015; Partition coefficient K-value, Dex-Ficoll-NaSCN—NaPB [3]: 0.911 ± 0.006; Partition coefficient K-value, Dex-PEG-NaClO4—NaPB [3]: 0.656 ± 0.020; Partition coefficient K-value, Dex-PEG-NaSCN—NaPB [3]: 1.514 ± 0.019
 |  |  |  | Retinol acetate | 0.812 ± 0.006 | 0.468 ± 0.002 | 0.196 ± 0.001 | 1.858 ± 0.016 | effect of binding on the K-value of the protein ([1]; Dex-Ficoll system): reduces; effect of binding on the K value of the protein ([1]; PEG-Phosphate, Dex-PEG, and Dex-Ficoll-NaSCN systems): increases

Compound | Partition coefficient K-value, PEG-3350-Phosphate system [2] | Partition coefficient K-value, Dex-PEG system [2] | Partition coefficient K-value, Dex-Ficoll system [2] | Partition coefficient K-value, Dex-Ficoll-Na2SO4 system [2] | Partition coefficient K-value, Dex-Ficoll system [1] | Partition coefficient K-value, Dex-Ficoll-NaSCN system [1] | Partition coefficient K-value, Dex-PEG system [1] | Partition coefficient K-value, PEG/Phosphate system [1] | other results
hen egg white lysozyme: Lysozyme from hen egg white (Sigma); protein alone, row 'None' of Table 2 | 2.278 ± 0.006 | 2.728 ± 0.010 | 0.890 ± 0.007 | 1.239 ± 0.008 |  |  |  |  | 

Source: patent US8211714B2, “Characterization of molecules” (Analiza, Inc., priority 2001, dated 2012)
